Experimental data as given in EP2050748A1, “Novel fused pyrimidines” (Bayer Schering Pharma Aktiengesellschaft, priority 2007, dated 2009).

Assays:
[1] = system: phosphorylated Akt protein (Ser473); assay: Cellular PI3K / Akt pathway assay (phospho-Akt ELISA); assay type: cell-based; conditions: Homo sapiens; MCF7 cells, stimulated with ß-Heregulin (20ng/ml), compound incubated 48h, phospho-Akt1 (Ser473) ELISA
Description: In order to study the cellular activity of the compounds according to the present invention, an Enzyme Linked Immunosorbent Assay (ELISA)-based assay has been used specific phospho-AKT. The assay is based on a Sandwich ELISA kit (PathScan™ Phospho-Akt1 (Ser473); Cell Signaling, USA; #7160).
The ELISA Kit detects endogenous levels of phosphorylated Akt protein. A phospho-Akt (Ser473) antibody (Cell Signaling, USA; #9271) has been coated onto the microwells. After incubation with cell lysates, the coated antibody captures the phosphorylated Akt protein. Following extensive washing, Akt1 monoclonal antibody (Cell Signaling, USA; #2967) is added to detect the captured phospho-Akt1 protein. HRP-linked anti-mouse antibody (HRP: horseradish peroxidase; Cell Signaling, USA; #7076) is then used to recognize the bound detection antibody. HRP substrate (= 3,3',5,5'-tetramethylbenzidine (TMB); Cell Signaling, USA; #7160) is added to develop colour. The magnitude of optical density for this developed color is proportional to the quantity of phosphorylated Akt protein.
MCF7 cells (ATCC HTB-22) are seeded into 96 well fate bottom plates at a density of 10000 cells/well. 24 hours after seeding, the cells are serum starved using low-serum medium (IMEM media including 0,1% charcoal treated FCS (FCS: fetal calf serum)). After 24 hours 1 µl each of the compound dilutions (test compounds were dissolved as 10 mM solutions in dimethylsulfoxide (DMSO) and subsequently diluted) are added into each well of the 96 well plates and incubated for 48h at 37°C in a humidified athmosphere containing 5% CO2. To stimulate Akt phosphorylation, ß-Heregulin (20ng/ml β-HRG) is added in parallel to the compounds. Wells containing unstimulated control cells (no β-Heregulin stimulation) are incubated with or without the diluted compound. Wells containing untreated control cells (no compound) are filled with medium containing 0.5% v:v DMSO and are or are not stimulated with β-Heregulin.
Cells are harvested and lysed with brief sonification in 1x x cell lysis buffer (20mM Tris (pH7.5), 150 mM NaCl, 1 mM ethylene diaminetetraacetate (EDTA), 1 mM ethylene glycolbis(2-aminoethyl)-N,N,N',N'-tetraacetic acid (EGTA), 1vol% Triton X-100, 2.5mM sodium pyrophosphate, 1 mM β-glycerolphosphate, 1 mM Na3VO4, 1 µg/ml leupeptin). The lysate is centrifuged for 10 min. at 4°C and the supernatant is transferred to a new tube. 100 µl of sample diluent (0.1vol% Tween-20, 0.1vol% sodium azide in phosphate buffered saline (PBS)) are added to a microcentrifuge tube and 100 µl of cell lysate are transferred into the tube and vortexed. 100 µl of each diluted cell lysate are added to the appropriate ELISA well, and incubated overnight at 4°C. The plates are washed 4 times with 1 x wash buffer (1 vol% tween-20, 0.33vol% thymol, in PBS). Next 100 µl of detection antibody (Akt1 (2H10) monoclonal detection antibody; Cell Signaling, USA; #2967) are added to each well and incubation continued for 1 h at 37°C. The washing procedure is repeated between each step. 100µl of secondary antibody (anti-mouse IgG HRP-linked antibody; Cell Signaling, USA; #7076) are added to each well and incubated for 30 min. at 37°C. Than, 100µl of TMB substrate (0.05% 3,3',5,5' tetramethylbenzidine, 0.1 % hydrogen peroxide, complex polypeptides in a buffered solution; Cell Signaling, USA; #7160) are added to each well and incubated for 30 min. at 25°C. Finally 100 µl of STOP solution (0.05vol% α and β unsaturated carbonyl compound) are added to each well and the plate are shaked gently. The absorbance is measured at λ=450 nm (Wallac Victor2; Perkin Elmer, USA) within 30 min. after adding the STOP solution. The analysis of the data is performed using a statistical program (Excel; Microsoft, USA). Preferred compounds show an inhibitory activity towards Akt phosphorylation below 10µM.

[2] = system: OvCAR3 cells; assay: Cellular proliferation / Cytotoxicity assay (Alamar Blue); assay type: cell-based; conditions: Homo sapiens, OVCAR-3, 48h incubation, Alamar Blue (Resazurin) cell viability, read-out: Anti-proliferative / Cytotoxic activity (OvCAR3 cells)
Description: The anti-proliferative activity of the compounds as described herein, is evaluated using the OvCAR3, HCT116 and A549 cell lines and the Alamar Blue (Resazurin) cell viability assay (O'Brien et al. Eur J Biochem 267, 5421-5426, 2000). Resazurin is reduced to the fluorescent resorufin by cellular dehydrogenase activity, correlating with viable, proliferating cells. Test compounds are dissolved as 10 mM solutions in DMSO and subsequently diluted. Cells like HCT116 or A549 cells were seeded into 96 well flat bottom plates at a density of 10000 cells/well (OvCAR3 cells), 1000 cells/well (HCT116 cells) or 2000 cells/well (A549 cells) in a volume of 200 µl/well. 24 hours after seeding, 1 µl each of the compound dilutions are added into each well of the 96 well plates. Each compound dilution is tested as at least as duplicates. Wells containing untreated control cells were filled with 200 µl DMEM (Dulbecco's Modified Eagle Medium) containing 0.5vol% v:v DMSO. The cells are then incubated with the substances for 48h at 37°C in a humidified atmosphere containing 5vol% CO2. To determine the viability of the cells, 20 µl of a Resazurin solution (90mg / l) are added. After 4h incubation at 37°C, the fluorescence is measured by extinction at ? = 544 nm and an emission of ? = 590 nm (Wallac Victor2; Perkin Elmer, USA). For the calculation of the cell viability, the emission value from untreated cells is set as 100% viability and the fluorescence intensity of treated cells are set in relation to the values of untreated cells. Viabilities are expressed as % values. The corresponding IC50 values of the compounds for cytotoxic activity are determined from the concentration-effect curves by means of non-linear regression. The analysis of the data is performed using a biostatistical program (GraphPad Prism, USA). Representative IC50 values for anti-proliferative / cytotoxic potency determined in the aforementioned assay follow from the following table, in which the numbers of the compound correspond to the numbers of the examples.

| IC50 [1] | Structure (SMILES) | IC50 [2] |
| --- | --- | --- |
| < 1 µM | c1ccc(-c2cn3ccnc3nc2-c2ccc(CN3CCC(c4cc(-c5ccccn5)n[nH]4)CC3)cc2)cc1 [Example 5, 6-phenyl-7-(4-{[4-(3-pyridin-2-yl-pyrazol-5-yl)piperidin-1-yl]methyl}phenyl)imidazo[1,2-a]pyrimidine] | > 1 µM |
| < 1 µM | c1ccc(-c2cn3ccnc3nc2-c2ccc(CN3CCC(c4nc(-c5ccccn5)n[nH]4)CC3)cc2)cc1 [Example 1, 6-phenyl-7-(4-{[4-(3-pyridin-2-yl-1,2,4-triazol-5-yl)piperidin-1-yl]methyl}phenyl)imidazo[1,2-a]pyrimidine] | > 1 µM |
| < 1 µM | CCc1cn2cc(-c3ccccc3)c(-c3ccc(CN4CCC(c5n[nH]c(-c6ccccn6)n5)CC4)cc3)nc2n1 [Example 17, 2-ethyl-6-phenyl-7-(4-{[4-(5-pyridin-2-yl-1,2,4-triazol-3-yl)piperidin-1-yl]methyl}phenyl)imidazo[1,2-a]pyrimidine] | < 1 µM |
| < 1 µM | N#Cc1cnc2nc(-c3ccc(CN4CCC(c5n[nH]c(-c6ccccn6)n5)CC4)cc3)c(-c3ccccc3)cn12 [Example 8, 6-phenyl-7-(4-{[4-(5-pyridin-2-yl-1,2,4-triazol-3-yl)piperidin-1-yl]methyl}phenyl)imidazo[1,2-a]pyrimidine-3-carbonitrile] | > 1 µM |
